Experiments:
[1] = molecular target: Sigma non-opioid intracellular receptor 1 (Homo sapiens, UniProt Q99720); experiment: DRUGMATRIX: Sigma1 radioligand binding (ligand: [3H] Haloperidol); format: cell membranes, Jurkat, Membrane; details: jurkat; Not Active = under 50% inhibition at 10 µM
[2] = molecular target: Kappa-type opioid receptor (Homo sapiens, UniProt P41145); experiment: DRUGMATRIX: Opiate kappa (OP2, KOP) radioligand binding (ligand: [3H] Diprenorphine); format: cell membranes, HEK293, Membrane; details: hek293; Not Active = under 50% inhibition at 10 µM
[3] = DRUGMATRIX: Serotonin (5-Hydroxytryptamine) 5-HT3 radioligand binding (ligand: [3H] GR-65630); format: cell membranes, Membrane; details: hek293; Not Active = under 50% inhibition at 10 µM
[4] = molecular target: T1, 5-hydroxytryptamine receptor 2C (Homo sapiens, UniProt P28335); experiment: DRUGMATRIX: Serotonin (5-Hydroxytryptamine) 5-HT2C radioligand binding (ligand: [3H] Mesulergine); format: cell membranes, CHO-K1, Membrane; details: cho-k1; Not Active = under 50% inhibition at 10 µM
T1 sequence (P28335 whole entry): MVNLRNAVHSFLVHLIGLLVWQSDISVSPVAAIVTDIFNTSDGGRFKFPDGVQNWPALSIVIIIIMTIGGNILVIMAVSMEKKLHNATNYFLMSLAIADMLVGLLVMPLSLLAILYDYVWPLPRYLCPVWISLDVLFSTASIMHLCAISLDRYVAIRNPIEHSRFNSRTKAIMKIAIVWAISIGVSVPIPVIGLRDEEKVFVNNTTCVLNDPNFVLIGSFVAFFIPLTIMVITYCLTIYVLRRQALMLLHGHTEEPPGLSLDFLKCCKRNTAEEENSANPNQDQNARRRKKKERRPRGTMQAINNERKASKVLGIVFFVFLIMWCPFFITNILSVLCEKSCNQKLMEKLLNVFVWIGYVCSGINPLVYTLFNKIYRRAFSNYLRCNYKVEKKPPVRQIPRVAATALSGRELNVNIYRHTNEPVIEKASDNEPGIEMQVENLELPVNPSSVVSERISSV

Mu-type opioid receptor = Mu-type opioid receptor (Homo sapiens, UniProt P35372); experiment: DRUGMATRIX: Opiate mu (OP3, MOP) radioligand binding (ligand: [3H] Diprenorphine); format: cell membranes, CHO-K1, Membrane; details: cho-k1; Not Active = under 50% inhibition at 10 µM
[5] = DRUGMATRIX: Calcium Channel Type L, Benzothiazepine radioligand binding (ligand: [3H] Diltiazem); format: cell membranes, Rattus norvegicus, Wistar, Brain, Membrane; details: Not Active = under 50% inhibition at 10 µM
[6] = DRUGMATRIX: Glutamate, Kainate radioligand binding (ligand: [3H] Kainic acid); format: cell membranes, Rattus norvegicus, Wistar, Brain, Membrane; details: Not Active = under 50% inhibition at 10 µM
[7] = molecular target: 5-hydroxytryptamine receptor 6 (Homo sapiens, UniProt P50406); format: cell membranes, HeLa, Membrane; details: hela; note: in other assays of this panel Not Active means under 50% inhibition at 10 µM
Endothelin-1 receptor = molecular target: T2, Endothelin-1 receptor (Homo sapiens, UniProt P25101); format: cell membranes, Membrane; details: cho-k1; note: in other assays of this panel Not Active means under 50% inhibition at 10 µM
T2 sequence (P25101 whole entry): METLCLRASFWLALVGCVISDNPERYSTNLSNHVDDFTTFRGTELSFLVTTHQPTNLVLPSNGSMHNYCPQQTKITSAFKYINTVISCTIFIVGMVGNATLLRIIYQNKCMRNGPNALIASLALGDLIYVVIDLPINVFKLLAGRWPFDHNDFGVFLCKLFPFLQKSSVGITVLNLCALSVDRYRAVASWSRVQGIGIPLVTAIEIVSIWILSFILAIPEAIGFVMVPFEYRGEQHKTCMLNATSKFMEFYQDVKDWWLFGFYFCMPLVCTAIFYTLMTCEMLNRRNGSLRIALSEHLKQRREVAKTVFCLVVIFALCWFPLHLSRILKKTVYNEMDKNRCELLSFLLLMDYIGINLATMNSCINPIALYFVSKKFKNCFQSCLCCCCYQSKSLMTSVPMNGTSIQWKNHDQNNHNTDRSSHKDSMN

[8] = DRUGMATRIX: Calcium Channel Type L, Phenylalkylamine radioligand binding (ligand: [3H] (-)-Desmethoxyverapamil (D-888)); format: cell membranes, Rattus norvegicus, Wistar, Brain, Membrane; details: Not Active = under 50% inhibition at 10 µM
[9] = molecular target: T3, Neuropeptide Y receptor type 2 (Homo sapiens, UniProt P49146); format: cell membranes, Membrane; details: kan-ts; note: in other assays of this panel Not Active means under 50% inhibition at 10 µM
T3 sequence (P49146 whole entry): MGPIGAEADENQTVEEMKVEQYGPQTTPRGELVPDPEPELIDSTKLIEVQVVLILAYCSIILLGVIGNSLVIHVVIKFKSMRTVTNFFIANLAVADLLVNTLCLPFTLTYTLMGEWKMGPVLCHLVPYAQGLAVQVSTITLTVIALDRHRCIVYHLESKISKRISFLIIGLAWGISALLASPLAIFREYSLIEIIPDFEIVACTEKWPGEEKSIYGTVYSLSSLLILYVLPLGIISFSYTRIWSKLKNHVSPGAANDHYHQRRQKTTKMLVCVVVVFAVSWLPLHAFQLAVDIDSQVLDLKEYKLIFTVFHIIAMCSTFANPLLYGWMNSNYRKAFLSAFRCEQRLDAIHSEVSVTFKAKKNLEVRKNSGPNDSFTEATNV

[10] = DRUGMATRIX: Nicotinic Acetylcholine radioligand binding (ligand: [125I] Epibatidine); format: cell membranes, Membrane; details: imr-32; Not Active = under 50% inhibition at 10 µM
[11] = molecular target: T4, Alpha-1B adrenergic receptor (Rattus norvegicus, UniProt P15823); experiment: DRUGMATRIX: Alpha-1B adrenergic receptor radioligand binding (ligand: prazosin); format: cell membranes, Wistar, Liver, Membrane; details: Not Active = under 50% inhibition at 10 µM
T4 sequence (P15823 whole entry): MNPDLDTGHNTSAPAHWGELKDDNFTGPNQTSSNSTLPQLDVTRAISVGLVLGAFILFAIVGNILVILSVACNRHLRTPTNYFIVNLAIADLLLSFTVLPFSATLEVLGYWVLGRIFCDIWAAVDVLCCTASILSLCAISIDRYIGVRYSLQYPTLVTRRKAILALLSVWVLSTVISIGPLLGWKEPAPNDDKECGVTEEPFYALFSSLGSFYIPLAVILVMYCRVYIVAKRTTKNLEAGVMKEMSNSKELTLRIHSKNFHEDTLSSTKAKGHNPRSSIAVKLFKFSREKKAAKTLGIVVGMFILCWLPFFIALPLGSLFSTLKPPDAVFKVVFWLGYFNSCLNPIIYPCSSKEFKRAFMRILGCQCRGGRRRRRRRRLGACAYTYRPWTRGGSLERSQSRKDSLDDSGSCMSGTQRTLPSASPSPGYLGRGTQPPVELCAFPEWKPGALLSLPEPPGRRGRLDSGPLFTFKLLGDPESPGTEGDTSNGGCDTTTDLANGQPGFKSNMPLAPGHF

[12] = molecular target: Beta-1 adrenergic receptor (Homo sapiens, UniProt P08588); experiment: DRUGMATRIX: Adrenergic beta1 radioligand binding (ligand: [125I] Cyanopindolol); format: cell membranes, CHO-K1, Membrane; details: cho-k1; Not Active = under 50% inhibition at 10 µM
[13] = DRUGMATRIX: GABAA, Muscimol, Central radioligand binding (ligand: [3H] Muscimol); format: cell membranes, Rattus norvegicus, Wistar, Brain, Membrane; details: Not Active = under 50% inhibition at 10 µM
Melanocortin receptor 4 = Melanocortin receptor 4 (Homo sapiens, UniProt P32245); format: cell membranes, Membrane; details: hek293; note: in other assays of this panel Not Active means under 50% inhibition at 10 µM
[14] = DRUGMATRIX: ATPase, Na+/K+ enzyme inhibition (substrate: ATP); format: tissue-based, Sus scrofa, Heart; details: Not Active = under 50% inhibition at 10 µM

Sequence of Melanocortin receptor 4 (P32245 whole entry): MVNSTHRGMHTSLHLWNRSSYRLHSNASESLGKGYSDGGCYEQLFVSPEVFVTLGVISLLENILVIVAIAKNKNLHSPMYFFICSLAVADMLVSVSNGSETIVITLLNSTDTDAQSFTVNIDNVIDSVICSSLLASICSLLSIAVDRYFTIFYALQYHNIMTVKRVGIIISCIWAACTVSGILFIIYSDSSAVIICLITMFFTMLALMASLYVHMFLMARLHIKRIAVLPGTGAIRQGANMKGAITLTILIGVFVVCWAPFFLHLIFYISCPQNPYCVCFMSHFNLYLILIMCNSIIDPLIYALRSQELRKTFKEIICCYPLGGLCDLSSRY
Sequence of Kappa-type opioid receptor (P41145 whole entry): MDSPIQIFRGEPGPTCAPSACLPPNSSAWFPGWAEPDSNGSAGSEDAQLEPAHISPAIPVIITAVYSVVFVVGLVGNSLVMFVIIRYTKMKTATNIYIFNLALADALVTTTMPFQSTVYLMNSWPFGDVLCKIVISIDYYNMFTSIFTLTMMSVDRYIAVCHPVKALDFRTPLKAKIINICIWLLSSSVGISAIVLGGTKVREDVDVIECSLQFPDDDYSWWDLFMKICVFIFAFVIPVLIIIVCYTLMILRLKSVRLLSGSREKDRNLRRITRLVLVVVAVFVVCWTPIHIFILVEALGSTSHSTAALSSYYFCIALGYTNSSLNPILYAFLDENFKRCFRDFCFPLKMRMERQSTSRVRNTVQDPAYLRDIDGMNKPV
Sequence of 5-hydroxytryptamine receptor 6 (P50406 whole entry): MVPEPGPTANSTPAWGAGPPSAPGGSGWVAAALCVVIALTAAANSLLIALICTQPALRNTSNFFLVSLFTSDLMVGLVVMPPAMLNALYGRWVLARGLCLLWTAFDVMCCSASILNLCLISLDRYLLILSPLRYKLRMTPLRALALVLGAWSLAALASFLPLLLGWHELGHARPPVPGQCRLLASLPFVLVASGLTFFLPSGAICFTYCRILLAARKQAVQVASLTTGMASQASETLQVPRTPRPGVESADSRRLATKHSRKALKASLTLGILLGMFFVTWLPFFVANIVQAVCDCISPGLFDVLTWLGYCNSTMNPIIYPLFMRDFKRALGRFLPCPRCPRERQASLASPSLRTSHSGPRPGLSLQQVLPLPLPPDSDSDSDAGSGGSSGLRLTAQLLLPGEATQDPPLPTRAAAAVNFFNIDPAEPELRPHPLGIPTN
Sequence of Mu-type opioid receptor (P35372 whole entry): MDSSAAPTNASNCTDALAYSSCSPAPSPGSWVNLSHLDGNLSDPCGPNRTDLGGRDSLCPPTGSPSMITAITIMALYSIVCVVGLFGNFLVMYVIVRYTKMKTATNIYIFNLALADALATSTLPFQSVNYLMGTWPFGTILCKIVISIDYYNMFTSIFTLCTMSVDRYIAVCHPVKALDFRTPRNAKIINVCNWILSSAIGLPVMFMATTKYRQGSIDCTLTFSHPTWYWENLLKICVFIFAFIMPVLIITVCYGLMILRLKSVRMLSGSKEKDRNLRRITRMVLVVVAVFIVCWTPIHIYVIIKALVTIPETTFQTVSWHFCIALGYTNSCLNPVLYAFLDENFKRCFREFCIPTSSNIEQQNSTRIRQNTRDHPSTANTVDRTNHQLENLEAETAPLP
Sequence of Sigma non-opioid intracellular receptor 1 (Q99720 whole entry): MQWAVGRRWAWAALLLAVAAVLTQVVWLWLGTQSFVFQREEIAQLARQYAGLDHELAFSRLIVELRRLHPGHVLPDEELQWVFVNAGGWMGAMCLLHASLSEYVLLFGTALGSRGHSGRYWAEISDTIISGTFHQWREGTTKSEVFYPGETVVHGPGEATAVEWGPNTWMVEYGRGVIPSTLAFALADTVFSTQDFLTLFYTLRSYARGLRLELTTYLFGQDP
Sequence of Beta-1 adrenergic receptor (P08588 whole entry): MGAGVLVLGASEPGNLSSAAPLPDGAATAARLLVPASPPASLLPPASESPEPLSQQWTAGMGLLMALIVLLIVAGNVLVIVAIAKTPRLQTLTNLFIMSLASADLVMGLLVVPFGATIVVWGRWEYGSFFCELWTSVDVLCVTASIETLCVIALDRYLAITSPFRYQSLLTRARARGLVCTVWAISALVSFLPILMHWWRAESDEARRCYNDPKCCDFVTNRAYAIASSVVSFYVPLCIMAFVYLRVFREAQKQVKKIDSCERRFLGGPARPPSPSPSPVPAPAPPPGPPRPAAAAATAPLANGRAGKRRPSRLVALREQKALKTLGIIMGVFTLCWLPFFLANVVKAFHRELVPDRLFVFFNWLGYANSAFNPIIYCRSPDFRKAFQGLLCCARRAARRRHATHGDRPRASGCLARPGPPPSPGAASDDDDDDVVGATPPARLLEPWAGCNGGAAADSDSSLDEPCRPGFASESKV

CO[C@@H]1[C@@H](O[C@@H]2O[C@H](C)[C@@H](O[C@H]3C[C@@](C)(O)[C@@H](OC(=O)CC(C)C)[C@H](C)O3)[C@H](N(C)C)[C@H]2O)[C@@H](CC=O)C[C@@H](C)[C@@H](O)/C=C/C=C/C[C@@H](C)OC(=O)C[C@H]1O [KITASAMYCIN]
Not Active: IC50 [1] | IC50 [2] | IC50 [3] | Ki [3] | IC50 [4] | IC50 (Mu-type opioid receptor) | IC50 [5] | Ki [5] | IC50 [6] | Ki [6] | IC50 [7] | IC50 (Endothelin-1 receptor) | IC50 [8] | Ki [8] | IC50 [9] | IC50 [10] | Ki [10] | IC50 [11] | IC50 [12] | IC50 [13] | Ki [13] | IC50 (Melanocortin receptor 4) | IC50 [14] | Ki [14]

Oc1c(I)cc(I)c2cccnc12 [IODOQUINOL]
Not Active: IC50 [1] | IC50 [2] | IC50 [3] | Ki [3] | IC50 [4] | IC50 (Mu-type opioid receptor) | IC50 [5] | Ki [5] | IC50 [6] | Ki [6] | IC50 [7] | IC50 (Endothelin-1 receptor) | IC50 [8] | Ki [8] | IC50 [9] | IC50 [10] | Ki [10] | IC50 [11] | IC50 [12] | IC50 [13] | Ki [13] | IC50 (Melanocortin receptor 4) | IC50 [14] | Ki [14]

NC(CO)(CO)CO [TROMETHAMINE]
Not Active: IC50 [1] | IC50 [2] | IC50 [3] | Ki [3] | IC50 [4] | IC50 (Mu-type opioid receptor) | IC50 [5] | Ki [5] | IC50 [6] | Ki [6] | IC50 [7] | IC50 (Endothelin-1 receptor) | IC50 [8] | Ki [8] | IC50 [9] | IC50 [10] | Ki [10] | IC50 [11] | IC50 [12] | IC50 [13] | Ki [13] | IC50 (Melanocortin receptor 4) | IC50 [14] | Ki [14]

Cc1ncc([N+](=O)[O-])n1CC(C)O (stereo unspecified) [SECNIDAZOLE]
Not Active: IC50 [1] | IC50 [2] | IC50 [3] | Ki [3] | IC50 [4] | IC50 (Mu-type opioid receptor) | IC50 [5] | Ki [5] | IC50 [6] | Ki [6] | IC50 [7] | IC50 (Endothelin-1 receptor) | IC50 [8] | Ki [8] | IC50 [9] | IC50 [10] | Ki [10] | IC50 [11] | IC50 [12] | IC50 [13] | Ki [13] | IC50 (Melanocortin receptor 4) | IC50 [14] | Ki [14]
